Entries after “also recorded” stand apart in the source; their conditions may differ. No end group written: not given here.
Key:
[1] = test system: bovine pancreatic trypsin; assay: Trypsin inhibitory assay; format: biochemical; details: substrate L-BAPNA, 50 mM Tris/20 mM CaCl2 pH 8.2, 10 min, room temperature; four concentrations, initial 750 µM or 1.5 mM with 10-fold dilutions; triplicate; absorbance 410 nm; positive control MCoTI-II
Description: A stock solution of bovine pancreatic trypsin at 4.5 mg/mL in 1 mM HCl was prepared and stored on ice. Firstly, the trypsin stock was diluted to 0.45 mg/mL in 50 mM Tris/20 mM CaCl2 (pH 8.2) buffer. Next, the substrate was prepared by dissolving 0.435 mg/mL L-BAPNA (Nα-benzoyl-L-arginine 4-nitroanilide hydrochloride, Sigma-Aldrich) in 1% DMSO/99% 50 mM Tris/20 mM CaCl2 buffer (pH 8.2). Four different peptide concentrations were tested starting from initial concentrations of 750 µM or 1.5 mM with 10-fold dilutions. The reaction mixture was prepared by dispensing 15 µL of 50 mM Tris/20 mM CaCl2 (pH 8.2) buffer, 5 µL of 0.45 mg/mL trypsin and followed by 5 µL of the tested peptide into each well of a 96-well plate in triplicate. A control without the tested peptide was used to measure 100% trypsin activity. Subsequently, 125 µL of 0.435 mg/mL substrate was added to the plate and incubated for 10 min at room temperature. The reaction was stopped by adding 25 µL of 30% acetic acid. Absorbance was measured at 410 nm using a Powerwave XS plate reader (Bio-Tek). Trypsin inhibition was calculated from the absorbance in the presence of the tested peptide as a percent of absorbance of the uninhibited trypsin [39]. MCoTI-II was used as the positive control.

HFF-1 = assay: Cytotoxicity MTT assay, HFF-1; format: cell-based; details: HFF-1 non-cancerous human cells; 0.1 µM to 100 µM, duplicate, 5 h, 37°C; MTT 1 h, absorbance 600 nm; positive control Taxol
Description: (§1) The cytotoxicity of the peptides on breast cancer cells (MDA-MB-231) and non-cancerous human cells (HFF-1) was measured using a standard MTT (3-(4,5-dimethylthiazol-2-yl)-2,5-diphenyltetrazolium bromide, Sigma-Aldrich) assay. Cells were seeded in a 96-well flat-bottomed plate at a concentration of 5.0×10^4 cells/cm^2 in DMEM in 10% FBS, or DMEM in 15% FBS, and incubated at 37°C in an atmosphere of 5% CO2 in air. After 24 h, peptides were added in duplicate at the concentrations ranging from 0.1 µM to 100 µM to make up a final volume of 100 µL in each well and then incubated for 5 h. MTT solution (10 µL) in PBS (5 mg/mL) was added to each well and maintained for 1 h. Media was removed, and formazan crystals were resuspended in 100 µL of DMSO. Absorbance was then read at 600 nm. Taxol was used as the positive control.

MDA-MB-231 = assay: Cytotoxicity MTT assay, MDA-MB-231; format: cell-based; details: MDA-MB-231 human breast cancer cells; 0.1 µM to 100 µM, duplicate, 5 h, 37°C; MTT 1 h, absorbance 600 nm; positive control Taxol
Description: as §1

[2] = test system: Plasmodium falciparum (FCR-3 strain); assay: Antimalarial assay; format: cell-based; details: FCR-3 strain in human RBCs (type A), 5% hematocrit, 0.3% parasitemia, GIT medium, 37°C, 72 h; various concentrations, duplicate; Giemsa smears, microscopy; positive control artemisinin
Description: Plasmodium falciparum (FCR-3 strain) was maintained in vitro at 37°C in GIT medium containing human red blood cells (RBCs, type A) at 5% hematocrit in 24-well plates which were put in a CO2 incubator (5% CO2, 5% O2 and 90% N2) at 37°C [41]. Peptides were added in duplicate in distilled water or 0.25 M phosphoric acid and prepared in various concentrations. 10 µL of this solution was added to individual cells of the plates. Erythrocytes with 0.3% parasitemia were added to the cells of the above plates containing 990 µL of culture medium. The plates were incubated at 37°C for 72 h in the CO2 incubator. To test the antimalarial activity of peptides, thin smears were prepared from each culture and stained with Giemsa. Erythrocytes were examined under microscopy. Artemisinin was used as the positive control. Drug-free control cultures were assayed simultaneously, [43].

Row | Sequence | trypsin inhibitory activity [1] | cytotoxic activity (HFF-1) | cytotoxic activity (MDA-MB-231) | antimalarial activity [2]
1 | GCAGKACNLLGLTCDAGCFCRPDGVGIVAGVCV (disulfide (positions not given here)) [MCh-2, PDB 2M2R] | not active; also recorded: not trypsin inhibitors | not active | not active | not active
2 | GCAGKSCNILGSDPCDAGCFCLPVGIVAGVCV (disulfide (positions not given here)) [MCh-1, PDB 2M2Q] | not active; also recorded: not trypsin inhibitors | not active | not active | not active

— paper PMC3792974, “Novel Inhibitor Cystine Knot Peptides from Momordica charantia” (PLoS ONE, 2013)
